Tests used:
Conditions in all cases: exposure time: 72 h
E31 [1] = patient-derived glioblastoma stem cells of proneural subtype; assay: surviving fraction (nuclei count normalised to DMSO); higher = more cells surviving (less toxic)
E34 [2] = patient-derived glioblastoma stem cells of proneural subtype; assay: as above
E28 [3] = patient-derived glioblastoma stem cells of classical subtype; assay: as above
FT3469 [4] = normal neural stem cell line; assay: as above
E57 [5] = patient-derived glioblastoma stem cells of mesenchymal subtype; assay: as above
E21 [6] = patient-derived glioblastoma stem cells of mesenchymal subtype; assay: as above
E13 [7] = patient-derived glioblastoma stem cells of classical subtype; assay: as above
E31 [8] = assay: phenotypic distance (Euclidean, principal components) from DMSO controls (arbitrary units); higher = stronger morphological change
E34 [9] = assay: as above
E28 [10] = assay: as above
FT3469 [11] = assay: as above
E57 [12] = assay: as above
E21 [13] = assay: as above
E13 [14] = assay: as above
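Throughout, for phenotypic distance (Euclidean, principal components) from DMSO controls: cell Painting imaging in 384-well plates, CellProfiler features reduced to at least 20 principal components, Euclidean distance versus same-plate DMSO vehicle wells (0.1% v/v), median over six images per well.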
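Throughout, for surviving fraction (nuclei count normalised to DMSO): nuclei counted by high-content imaging of Hoechst-stained cells in laminin-coated 384-well plates, relative to 0.1% DMSO vehicle wells, with staurosporine as cell-death control.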

## COc1cc([C@@H]2c3cc4c(cc3[C@@H](O[C@@H]3O[C@@H]5CO[C@@H](c6cccs6)O[C@H]5[C@H](O)[C@H]3O)[C@H]3COC(=O)[C@H]23)OCO4)cc(OC)c1O [Teniposide]
E31 [1]; 4.1 nM
  surviving fraction: 0.376
E31 [1]; 12.3 nM
  surviving fraction: 0.25
E31 [1]; 37 nM
  surviving fraction: 0.241
E31 [1]; 111.1 nM
  surviving fraction: 0.201
E31 [1]; 333.3 nM
  surviving fraction: 0.2
E31 [1]; 1000 nM
  surviving fraction: 0.243
E31 [1]; 3000 nM
  surviving fraction: 0.191
E34 [2]; 4.1 nM
  surviving fraction: 0.758
E34 [2]; 12.3 nM
  surviving fraction: 0.677
E34 [2]; 37 nM
  surviving fraction: 0.577
E34 [2]; 111.1 nM
  surviving fraction: 0.57
E34 [2]; 333.3 nM
  surviving fraction: 0.501
E34 [2]; 1000 nM
  surviving fraction: 0.447
E34 [2]; 3000 nM
  surviving fraction: 0.373
E28 [3]; 4.1 nM
  surviving fraction: 0.491
E28 [3]; 12.3 nM
  surviving fraction: 0.379
E28 [3]; 37 nM
  surviving fraction: 0.428
E28 [3]; 111.1 nM
  surviving fraction: 0.351
E28 [3]; 333.3 nM
  surviving fraction: 0.32
E28 [3]; 1000 nM
  surviving fraction: 0.269
E28 [3]; 3000 nM
  surviving fraction: 0.314
FT3469 [4]; 4.1 nM
  surviving fraction: 0.636
FT3469 [4]; 12.3 nM
  surviving fraction: 0.643
FT3469 [4]; 37 nM
  surviving fraction: 0.644
FT3469 [4]; 111.1 nM
  surviving fraction: 0.62
FT3469 [4]; 333.3 nM
  surviving fraction: 0.595
FT3469 [4]; 1000 nM
  surviving fraction: 0.629
FT3469 [4]; 3000 nM
  surviving fraction: 0.544
E57 [5]; 4.1 nM
  surviving fraction: 0.727
E57 [5]; 12.3 nM
  surviving fraction: 0.418
E57 [5]; 37 nM
  surviving fraction: 0.323
E57 [5]; 111.1 nM
  surviving fraction: 0.212
E57 [5]; 333.3 nM
  surviving fraction: 0.167
E57 [5]; 1000 nM
  surviving fraction: 0.178
E57 [5]; 3000 nM
  surviving fraction: 0.148
E21 [6]; 4.1 nM
  surviving fraction: 0.902
E21 [6]; 12.3 nM
  surviving fraction: 0.682
E21 [6]; 37 nM
  surviving fraction: 0.589
E21 [6]; 111.1 nM
  surviving fraction: 0.552
E21 [6]; 333.3 nM
  surviving fraction: 0.376
E21 [6]; 1000 nM
  surviving fraction: 0.145
E21 [6]; 3000 nM
  surviving fraction: 0.177
E13 [7]; 4.1 nM
  surviving fraction: 0.713
E13 [7]; 12.3 nM
  surviving fraction: 0.528
E13 [7]; 37 nM
  surviving fraction: 0.45
E13 [7]; 111.1 nM
  surviving fraction: 0.412
E13 [7]; 333.3 nM
  surviving fraction: 0.351
E13 [7]; 1000 nM
  surviving fraction: 0.305
E13 [7]; 3000 nM
  surviving fraction: 0.174
E31 [8]; 4.1 nM
  phenotypic distance: 4.09
E31 [8]; 12.3 nM
  phenotypic distance: 2.97
E31 [8]; 37 nM
  phenotypic distance: 3.3
E31 [8]; 111.1 nM
  phenotypic distance: 3.9
E31 [8]; 333.3 nM
  phenotypic distance: 2.97
E31 [8]; 1000 nM
  phenotypic distance: 2.67
E31 [8]; 3000 nM
  phenotypic distance: 3.37
E34 [9]; 4.1 nM
  phenotypic distance: 1.81
E34 [9]; 12.3 nM
  phenotypic distance: 2.04
E34 [9]; 37 nM
  phenotypic distance: 3.24
E34 [9]; 111.1 nM
  phenotypic distance: 3.96
E34 [9]; 333.3 nM
  phenotypic distance: 4.04
E34 [9]; 1000 nM
  phenotypic distance: 2.46
E34 [9]; 3000 nM
  phenotypic distance: 2.97
E28 [10]; 4.1 nM
  phenotypic distance: 3.11
E28 [10]; 12.3 nM
  phenotypic distance: 3.7
E28 [10]; 37 nM
  phenotypic distance: 3.52
E28 [10]; 111.1 nM
  phenotypic distance: 3.17
E28 [10]; 333.3 nM
  phenotypic distance: 3.7
E28 [10]; 1000 nM
  phenotypic distance: 3.58
E28 [10]; 3000 nM
  phenotypic distance: 3.53
FT3469 [11]; 4.1 nM
  phenotypic distance: 1.68
FT3469 [11]; 12.3 nM
  phenotypic distance: 2.44
FT3469 [11]; 37 nM
  phenotypic distance: 2.6
FT3469 [11]; 111.1 nM
  phenotypic distance: 2.26
FT3469 [11]; 333.3 nM
  phenotypic distance: 1.97
FT3469 [11]; 1000 nM
  phenotypic distance: 1.78
FT3469 [11]; 3000 nM
  phenotypic distance: 2.12
E57 [12]; 4.1 nM
  phenotypic distance: 1.82
E57 [12]; 12.3 nM
  phenotypic distance: 4.96
E57 [12]; 37 nM
  phenotypic distance: 6.24
E57 [12]; 111.1 nM
  phenotypic distance: 8.39
E57 [12]; 333.3 nM
  phenotypic distance: 8.07
E57 [12]; 1000 nM
  phenotypic distance: 6.94
E57 [12]; 3000 nM
  phenotypic distance: 6.61
E21 [13]; 4.1 nM
  phenotypic distance: 0.843
E21 [13]; 12.3 nM
  phenotypic distance: 2.77
E21 [13]; 37 nM
  phenotypic distance: 3.95
E21 [13]; 111.1 nM
  phenotypic distance: 5.39
E21 [13]; 333.3 nM
  phenotypic distance: 5.06
E21 [13]; 1000 nM
  phenotypic distance: 6.2
E21 [13]; 3000 nM
  phenotypic distance: 6.57
E13 [14]; 4.1 nM
  phenotypic distance: 1.43
E13 [14]; 12.3 nM
  phenotypic distance: 3.27
E13 [14]; 37 nM
  phenotypic distance: 4.96
E13 [14]; 111.1 nM
  phenotypic distance: 5.68
E13 [14]; 333.3 nM
  phenotypic distance: 5.77
E13 [14]; 1000 nM
  phenotypic distance: 5.12
E13 [14]; 3000 nM
  phenotypic distance: 6.24

## C[C@@H]1C[C@@H]([C@H](O)CC2CC(=O)NC(=O)C2)C(=O)[C@@H](C)C1 [Cycloheximide]
E31 [1]; 4.1 nM
  surviving fraction: 0.854
E31 [1]; 12.3 nM
  surviving fraction: 0.905
E31 [1]; 37 nM
  surviving fraction: 0.703
E31 [1]; 111.1 nM
  surviving fraction: 0.684
E31 [1]; 333.3 nM
  surviving fraction: 0.477
E31 [1]; 1000 nM
  surviving fraction: 0.297
E31 [1]; 3000 nM
  surviving fraction: 0.261
E34 [2]; 4.1 nM
  surviving fraction: 0.885
E34 [2]; 12.3 nM
  surviving fraction: 0.873
E34 [2]; 37 nM
  surviving fraction: 0.815
E34 [2]; 111.1 nM
  surviving fraction: 0.616
E34 [2]; 333.3 nM
  surviving fraction: 0.562
E34 [2]; 1000 nM
  surviving fraction: 0.584
E34 [2]; 3000 nM
  surviving fraction: 0.414
E28 [3]; 4.1 nM
  surviving fraction: 0.899
E28 [3]; 12.3 nM
  surviving fraction: 0.76
E28 [3]; 37 nM
  surviving fraction: 0.771
E28 [3]; 111.1 nM
  surviving fraction: 0.592
E28 [3]; 333.3 nM
  surviving fraction: 0.542
E28 [3]; 1000 nM
  surviving fraction: 0.346
E28 [3]; 3000 nM
  surviving fraction: 0.451
FT3469 [4]; 4.1 nM
  surviving fraction: 0.912
FT3469 [4]; 12.3 nM
  surviving fraction: 0.753
FT3469 [4]; 37 nM
  surviving fraction: 0.87
FT3469 [4]; 111.1 nM
  surviving fraction: 0.918
FT3469 [4]; 333.3 nM
  surviving fraction: 0.691
FT3469 [4]; 1000 nM
  surviving fraction: 0.723
FT3469 [4]; 3000 nM
  surviving fraction: 0.633
E57 [5]; 4.1 nM
  surviving fraction: 0.723
E57 [5]; 12.3 nM
  surviving fraction: 0.694
E57 [5]; 37 nM
  surviving fraction: 0.546
E57 [5]; 111.1 nM
  surviving fraction: 0.511
E57 [5]; 333.3 nM
  surviving fraction: 0.322
E57 [5]; 1000 nM
  surviving fraction: 0.323
E57 [5]; 3000 nM
  surviving fraction: 0.227
E21 [6]; 4.1 nM
  surviving fraction: 0.753
E21 [6]; 12.3 nM
  surviving fraction: 0.688
E21 [6]; 37 nM
  surviving fraction: 0.532
E21 [6]; 111.1 nM
  surviving fraction: 0.518
E21 [6]; 333.3 nM
  surviving fraction: 0.443
E21 [6]; 1000 nM
  surviving fraction: 0.356
E21 [6]; 3000 nM
  surviving fraction: 0.305
E13 [7]; 4.1 nM
  surviving fraction: 0.769
E13 [7]; 12.3 nM
  surviving fraction: 0.713
E13 [7]; 37 nM
  surviving fraction: 0.644
E13 [7]; 111.1 nM
  surviving fraction: 0.654
E13 [7]; 333.3 nM
  surviving fraction: 0.436
E13 [7]; 1000 nM
  surviving fraction: 0.408
E13 [7]; 3000 nM
  surviving fraction: 0.306
E31 [8]; 4.1 nM
  phenotypic distance: 0.95
E31 [8]; 12.3 nM
  phenotypic distance: 0.932
E31 [8]; 37 nM
  phenotypic distance: 1.32
E31 [8]; 111.1 nM
  phenotypic distance: 1.7
E31 [8]; 333.3 nM
  phenotypic distance: 2.21
E31 [8]; 1000 nM
  phenotypic distance: 2.11
E31 [8]; 3000 nM
  phenotypic distance: 3
E34 [9]; 4.1 nM
  phenotypic distance: 1.3
E34 [9]; 12.3 nM
  phenotypic distance: 0.758
E34 [9]; 37 nM
  phenotypic distance: 0.919
E34 [9]; 111.1 nM
  phenotypic distance: 1.49
E34 [9]; 333.3 nM
  phenotypic distance: 1.35
E34 [9]; 1000 nM
  phenotypic distance: 2.05
E34 [9]; 3000 nM
  phenotypic distance: 3.12
E28 [10]; 4.1 nM
  phenotypic distance: 0.801
E28 [10]; 12.3 nM
  phenotypic distance: 0.904
E28 [10]; 37 nM
  phenotypic distance: 0.979
E28 [10]; 111.1 nM
  phenotypic distance: 1.14
E28 [10]; 333.3 nM
  phenotypic distance: 1.17
E28 [10]; 1000 nM
  phenotypic distance: 1.95
E28 [10]; 3000 nM
  phenotypic distance: 2.12
FT3469 [11]; 4.1 nM
  phenotypic distance: 0.852
FT3469 [11]; 12.3 nM
  phenotypic distance: 0.622
FT3469 [11]; 37 nM
  phenotypic distance: 1.06
FT3469 [11]; 111.1 nM
  phenotypic distance: 1.36
FT3469 [11]; 333.3 nM
  phenotypic distance: 5.19
FT3469 [11]; 1000 nM
  phenotypic distance: 1.49
FT3469 [11]; 3000 nM
  phenotypic distance: 1.95
E57 [12]; 4.1 nM
  phenotypic distance: 1.49
E57 [12]; 12.3 nM
  phenotypic distance: 1.61
E57 [12]; 37 nM
  phenotypic distance: 2.55
E57 [12]; 111.1 nM
  phenotypic distance: 2.56
E57 [12]; 333.3 nM
  phenotypic distance: 4.4
E57 [12]; 1000 nM
  phenotypic distance: 4.89
E57 [12]; 3000 nM
  phenotypic distance: 4.79
E21 [13]; 4.1 nM
  phenotypic distance: 1.69
E21 [13]; 12.3 nM
  phenotypic distance: 1.77
E21 [13]; 37 nM
  phenotypic distance: 2.65
E21 [13]; 111.1 nM
  phenotypic distance: 3.3
E21 [13]; 333.3 nM
  phenotypic distance: 5.28
E21 [13]; 1000 nM
  phenotypic distance: 4.65
E21 [13]; 3000 nM
  phenotypic distance: 3.46
E13 [14]; 4.1 nM
  phenotypic distance: 1.33
E13 [14]; 12.3 nM
  phenotypic distance: 5.02
E13 [14]; 37 nM
  phenotypic distance: 1.69
E13 [14]; 111.1 nM
  phenotypic distance: 1.77
E13 [14]; 333.3 nM
  phenotypic distance: 3.18
E13 [14]; 1000 nM
  phenotypic distance: 3.1
E13 [14]; 3000 nM
  phenotypic distance: 4.48

Reference: the supplement of paper PMC13207355
